Data as given in article PMC7072979, “Doxorubicin Inhibits Phosphatidylserine Decarboxylase and Modifies Mitochondrial Membrane Composition in HeLa Cells” (International Journal of Molecular Sciences, 2020).

Biological target: T1, phosphatidylserine decarboxylase (PSD) (Homo sapiens, UniProt Q9UG56)
T1 construct: gene PISD; native endogenous enzyme in mitochondria isolated from HeLa cells (not purified); proenzyme self-cleaved into alpha and beta subunits
T1 sequence (Q9UG56 53-377): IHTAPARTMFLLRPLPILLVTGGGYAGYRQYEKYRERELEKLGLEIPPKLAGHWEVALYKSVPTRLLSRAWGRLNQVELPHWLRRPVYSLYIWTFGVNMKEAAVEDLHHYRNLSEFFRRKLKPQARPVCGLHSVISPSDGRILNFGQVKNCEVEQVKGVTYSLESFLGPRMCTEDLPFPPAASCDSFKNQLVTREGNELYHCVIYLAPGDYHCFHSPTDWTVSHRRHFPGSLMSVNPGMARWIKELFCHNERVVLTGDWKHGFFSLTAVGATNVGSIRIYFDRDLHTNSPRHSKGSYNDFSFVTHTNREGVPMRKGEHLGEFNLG
T1 sequence (Q9UG56 378-409): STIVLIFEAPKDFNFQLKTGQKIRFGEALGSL
Test: PE-NBD formation from PS-NBD, HPTLC fluorescence scan, isolated mitochondria
Assay type: biochemical

COc1cccc2c1C(=O)c1c(O)c3c(c(O)c1C2=O)C[C@@](O)(C(=O)CO)C[C@@H]3O[C@H]1C[C@H](N)[C@H](O)[C@H](C)O1 [Doxorubicin]
inhibition at 5 µM: 48%
